Here are results for eleven compounds from ChEMBL document CHEMBL1145757, “QSAR study on solubility of alkanes in water and their partition coefficients in different solvent systems using PI index” (Bioorg Med Chem Lett, 2003).

The nature of data set [1]: physchem.
Description: Solubility in water was determined; values expressed as -log
The conditions of data set [2]: water/hexadecane.
Description: Partition coefficient in water-hexadecane (P16) was determined
A short description of data set [3]: physchem. As to conditions: octanol/water.
Description: Partition coefficient (logP)
A short description of data set [4]: Partition coefficient in water-cyclohexane was determined. It counts as ADME.
The conditions of data set [5]: water/alkane.
Description: Partition coefficient in alkanes was determined
The conditions of data set [6]: octanol/water.
Description: Partition coefficient (logP)

In brackets after ≈: the same amount, converted by molar mass.

Consider `CCCCCCCCCCCC` [DODECANE], for which the solubility in data set [1] (buffer) was 0.0214 µM (≈ 0.00364 µg/mL).
With `CCCCCCCCC` [NONANE], the “Log P16” value in data set [2] is 6.49. This compound showed a logP in data set [3] of 5.65. The compound further had a solubility in data set [1] (buffer) of 1.32 µM (≈ 0.169 µg/mL).
With `C` [METHANE], the “Log P16” value in data set [2] is reported as 1.14. In data set [4], the “Log Pcyc” value is listed as 1.33. Moreover, the “Log Palk” value in data set [5] is reported as 1.37.
As to `CCCCCC` [HEXANE], the solubility in data set [1] (buffer) was 145 µM (≈ 12.5 µg/mL). Besides, the logP in data set [6] was determined as 3.9.
Consider `CCCC` [BUTANE], for which the “Log Pcyc” value in data set [4] is 3.62. This compound also showed a solubility in data set [1] (buffer) of 2690 µM (≈ 156 µg/mL). Further, the logP in data set [6] amounted to 2.89.
On to `CCCCCCC` [HEPTANE], for which, in data set [2], the “Log P16” value is recorded as 5.14. This compound also returned a log partition coefficient (logP) in data set [3] of 4.5. Also, the solubility in data set [1] (water) was 29.5 µM (≈ 2.96 µg/mL).
For `CCCCCCCC` [OCTANE], in that order: 5.79, 5.15 and 5.75 µM (≈ 0.657 µg/mL).
The compound `CCCCCCCCCCCCCCCC` [HEXADECANE] showed a solubility in data set [1] (water) of 0.00398 µM (≈ 0.000902 µg/mL). The compound also showed a lipophilicity (logP) in data set [6] of 9.57.
Regarding `CCCCCCCCCC` [DECANE], the “Log P16” value in data set [2] is reported as 7.01. This compound also registered a lipophilicity (logP) in data set [3] of 6.34. Also, in data set [1] (water), the solubility is 0.105 µM (≈ 0.0149 µg/mL).
On to `CCCCC` [PENTANE], for which the “Log P16” value in data set [2] is 3.87. Also, in data set [4], the “Log Pcyc” value turned out to be 4.27. In data set [1] (water), the solubility is 661 µM (≈ 47.7 µg/mL). The “Log Palk” value in data set [5] is listed as 4.06.
For `CCCCCCCCCCCCCC`, the logP in data set [3] stood at 8. The same compound showed a solubility in data set [1] (water) of 0.011 µM (≈ 0.00218 µg/mL).

A word on the solubility: it is how much of the substance goes into solution per volume. Higher therefore signals a readily soluble substance. The term logP denotes the decadic logarithm of the partition coefficient of the neutral form, usually between octanol and water.
